# “And” between values parts separate entries of the source, which are not always exact repeats. Equal entries are not always repeated. “Also recorded” adds a separate entry of the source. Where two headings read alike, the source gives them in different places.
# Key:
# [1] = test system: Uromyces phaseoli; assay: Bean rust lesions on unifoliolate leaves of Pinto bean sprayed before or after inoculation; format: in vivo
# [2] = test system: bean plants (Phaseolus vulgaris cv Pinto); assay: Effect of sprays on growth and appearance of bean plants; format: in vivo
# Method: Unifoliolate leaves of 10-day-old bean seedlings were sprayed (400 ul per leaf) with DFMO or alpha-difluoromethylarginine (DFMA) at concentrations of 0.01-5 mM, before or after inoculation with uredospores of the bean rust, Uromyces phaseoli, Race 0. The inhibitor solutions were prepared in 0.01% Tween 20, with the pH adjusted to 7.0. Control plants without inhibitor were sprayed similarly and were allowed to dry before inoculation with the pathogen. After inoculation with rust uredospores (25 mg/100 ml of 0.01% Tween 20) all plants were placed in dew chambers (100% relative humidity) for 16 hours at 19° C. in total darkness. After exposures to inhibitors and uredospores, all plants were returned to the greenhouse and arranged randomly. Disease severity was evaluated 7 days after inoculation by counting foliar lesions. In control plants and those treated with low concentrations of DFMO, uredospores were collected randomly from each treatment to determine percent germination and pathogenicity. For determination of germination, spores were dusted onto Petri plates containing 10 mM 2-(N-morpholino)ethanesulfonic acid (Mes) at pH 7.0, 3 mM CaCl2, 2 mM MgSO4, and 1% purified agar, and incubated for 3 hr at 19° C. in the light.
# [3] = test system: Verticillium dahliae; assay: Radial mycelial growth of Verticillium dahliae in vitro; format: cell-based; conditions: for minimal effective concentration: Verticillium dahliae, in vitro
# [4] = test system: Verticillium dahliae; assay: Verticillium wilt symptoms in Bonny Best tomato after foliar spray; format: in vivo
# [5] = test system: P. graminis f. sp. tritici; format: in vivo, Puccinia graminis f. sp. tritici
# [6] = test system: P. recondita f. sp. tritici; format: in vivo, Puccinia recondita f. sp. tritici
# [7] = test system: PA titers of bean leaves; assay: Polyamine titers in leaves of sprayed bean plants; format: in vivo, Phaseolus vulgaris
# Method: PA analysis was performed on leaf samples collected from inhibitor-sprayed bean plants. Leaf samples were ground in prechilled mortars with 10% (w/v) HClO4 at a ratio of 200 mg fresh weight leaf per ml HClO4. Homogenates were centrifuged at 26,00 g for 20 minutes at 4° C. The clear supernatant fractions were used for dansylation according to a procedure previously described. Briefly, 0.4 ml of freshly prepared dansyl (Diaminonaphthylsulfonyl)-C1 (Sigma), 5 mg/ml in acetone, and 0.2 ml of saturated Na2 CO3 were added to 0.2 ml of the supernatant fraction. The dansylated PA were extracted with 0.25 ml benzene and the clear benzene layer was used for PA determinations by TLC on LK6D high resolution silica gel plates (Whatman). After development in chloroform:triethylamine (25:2 v/v) for about 1 hour and location by fluorescence under a UV lamp, the dansylpolyamine bands were scraped off, eluted in 4 ml of ethyl acetate and quantified with an Aminco-Bowman fluorimeter.
# The effect of DFMO and DFMA sprays (0.01, 0.1, and 1.0 mM) on PA titers was also examined. Unifoliolate leaves were sprayed in the usual way and examined 1 and 3 days later, while the first trifolioloate leaves, unexpanded ata the time of spray and themselves unsprayed, were examined 8 days later.
# [8] = test system: Puccinia graminis fsp avenae; format: in vivo
# [9] = test system: bean rust uredospores; assay: Germination and differentiation of bean rust uredospores in agar; format: cell-based, Uromyces phaseoli; conditions: for inhibition at 100 µM / inhibition at 500 µM / inhibition at 1000 µM / inhibition at 5000 µM: Uromyces phaseoli
# [10] = test system: Erysiphe polygoni; assay: Infection by bean powdery mildew; format: in vivo
# [11] = test system: Botrytis sp., B. cinerea, Rhizoctonia solani, Monilinia fructicola; conditions: Botrytis sp., B. cinerea, Rhizoctonia solani, Monilinia fructicola; cited from earlier work
# [12] = test system: Erysiphe graminis; assay: Wheat powdery mildew infection, colonies per plant
# Method: With wheat powdery mildew (E. graminis) 10-day-old seedlings were sprayed with solutions of DFMA or DFMO from 0.01 to 5.0 mM before and after inoculation of the plants with conidia. Inoculation occurred naturally in the greenhouse by distributing infected plants among the experimental plants for 24 hours. Infection was evaluated 10 days after inoculation by counting mildew colonies.
# [13] = postinoculation exposure, inhibitor 0.01 mM
# [14] = postinoculation exposure, inhibitor 0.025 mM
# [15] = postinoculation exposure, inhibitor 0.05 mM
# [16] = postinoculation exposure, inhibitor 0.075 mM
# [17] = postinoculation exposure, inhibitor 0.10 mM
# [18] = postinoculation exposure, inhibitor 0.25 mM
# [19] = postinoculation exposure, inhibitor 0.50 mM
# [20] = postinoculation exposure, inhibitor 1.0 mM
# [21] = postinoculation exposure, inhibitor 5.0 mM
# [22] = preinoculation exposure, inhibitor 0.01 mM
# [23] = preinoculation exposure, inhibitor 0.025 mM
# [24] = preinoculation exposure, inhibitor 0.05 mM
# [25] = preinoculation exposure, inhibitor 0.075 mM
# [26] = preinoculation exposure, inhibitor 0.10 mM
# [27] = preinoculation exposure, inhibitor 0.25 mM
# [28] = preinoculation exposure, inhibitor 0.50 mM
# [29] = preinoculation exposure, inhibitor 1.0 mM
# [30] = preinoculation exposure, inhibitor 5.0 mM
smiles,measurement,setting,value
"NCCCC(N)(C(=O)O)C(F)F (racemic) [DFMO, DL-alpha-difluorimethylornithine]",protection against infection,[1]; 400 ul of 0.25 mM applied to a single leaf,complete protection
same,disease symptoms / protection against bean rust,"[1]; DFMO at 0.5 mM or higher, pre- and postinoculation, 400 ul per leaf",No disease symptoms could be detected; also recorded: complete protection
same,germination or pathogenicity of uredospores collected from treated plants,[1]; plants treated with low concentrations,no decrease in germination or pathogenicity
same,delay of uredial appearance,"[1]; postinoculation exposure, lower concentrations, dose-dependent",2 to 6 days
same,Lesions per cm^2,[1]; [13],40 ± 5 per cm^2
same,Lesions per leaf,[1]; [13],1888 ± 249 per leaf
same,Lesions per cm^2,[1]; [14],28 ± 2 per cm^2
same,Lesions per leaf,[1]; [14],1526 ± 160 per leaf
same,Lesions per cm^2,[1]; [15],17 ± 2 per cm^2
same,Lesions per leaf,[1]; [15],1026 ± 131 per leaf
same,Lesions per cm^2,[1]; [16],12 ± 1 per cm^2
same,Lesions per leaf,[1]; [16],669 ± 96 per leaf
same,Lesions per cm^2,[1]; [17],5 ± 1 per cm^2
same,Lesions per leaf,[1]; [17],221 ± 39 per leaf
same,Lesions per cm^2,[1]; [18],2 ± 1 per cm^2
same,Lesions per leaf,[1]; [18],73 ± 4 per leaf
same,Lesions per cm^2,[1]; [19],0 per cm^2
same,Lesions per leaf,[1]; [19],0 per leaf
same,Lesions per cm^2,[1]; [20],0 per cm^2
same,Lesions per leaf,[1]; [20],0 per leaf
same,Lesions per cm^2,[1]; [21],0 per cm^2
same,Lesions per leaf,[1]; [21],0 per leaf
same,Lesions per cm^2,[1]; [22],47 ± 6 per cm^2
same,Lesions per leaf,[1]; [22],2677 ± 397 per leaf
same,Lesions per cm^2,[1]; [23],34 ± 1 per cm^2
same,Lesions per leaf,[1]; [23],2071 ± 103 per leaf
same,Lesions per cm^2,[1]; [24],29 ± 4 per cm^2
same,Lesions per leaf,[1]; [24],1712 ± 375 per leaf
same,Lesions per cm^2,[1]; [25],19 ± 2 per cm^2
same,Lesions per leaf,[1]; [25],1177 ± 159 per leaf
same,Lesions per cm^2,[1]; [26],14 ± 2 per cm^2
same,Lesions per leaf,[1]; [26],659 ± 104 per leaf
same,Lesions per cm^2,[1]; [27],2 ± 1 per cm^2
same,Lesions per leaf,[1]; [27],85 ± 20 per leaf
same,Lesions per cm^2,[1]; [28],0 per cm^2
same,Lesions per leaf,[1]; [28],0 per leaf
same,Lesions per cm^2,[1]; [29],0 per cm^2
same,Lesions per leaf,[1]; [29],0 per leaf
same,Lesions per cm^2,[1]; [30],0 per cm^2
same,Lesions per leaf,[1]; [30],0 per leaf
same,"appearance, growth and development of sprayed bean plants","[2]; all concentrations, as high as 5 mM","looked healthy, exhibiting no malformation or reduction in growth rate; also recorded: no apparent effect on growth and development of the plant"
same,growth of the bean plants,"[2]; sprays 0.01, 0.1 and 1.0 mM",no effect
same,minimal effective concentration,"[3]; 192 h, 8 days, read-out: concentration reducing radial (mycelial) growth",≥ 5 µM
same,minimal effective concentration,[3]; read-out: concentration inhibiting pigment synthesis,≥ 500 µM
same,effect of 1 mM putrescine on DFMO-induced growth inhibition,[3]; putrescine added to culture medium,reversed
same,symptoms of Verticillium wilt compared to controls,"[4]; 2.5 mM and 10 mM, 24 hours after inoculation",suppressed symptoms
same,most effective time for application,"[4]; 5 mM DFMO, symptoms 21 days after inoculation",24-48 hours post-inoculation
same,delay of onset of symptom expression,[4]; increasing concentration from 2.5 to 10 mM,up to 7 days
same,wilt symptoms,"[4]; spores applied to the soil, DFMO applied to the leaves",greatly suppressed
same,% control,"[5]; post-inoculation, 0.01 mM",36%
same,Uredia/plant,"[5]; post-inoculation, 0.01 mM",134 Uredia/plant
same,% control,"[5]; post-inoculation, 0.025 mM",44%
same,Uredia/plant,"[5]; post-inoculation, 0.025 mM",117 Uredia/plant
same,% control,"[5]; post-inoculation, 0.065 mM",55%
same,Uredia/plant,"[5]; post-inoculation, 0.065 mM",94 Uredia/plant
same,% control,"[5]; post-inoculation, 0.10 mM",76%
same,Uredia/plant,"[5]; post-inoculation, 0.10 mM",51 Uredia/plant
same,% control,"[5]; post-inoculation, 0.13 mM",77%
same,Uredia/plant,"[5]; post-inoculation, 0.13 mM",49 Uredia/plant
same,% control,"[5]; post-inoculation, 0.16 mM",81%
same,Uredia/plant,"[5]; post-inoculation, 0.16 mM",40 Uredia/plant
same,% control,"[5]; post-inoculation, 0.20 mM",82%
same,Uredia/plant,"[5]; post-inoculation, 0.20 mM",37 Uredia/plant
same,% control,"[5]; post-inoculation, 1.00 mM",92%
same,Uredia/plant,"[5]; post-inoculation, 1.00 mM",17 Uredia/plant
same,"ED50, wheat stem rust",[5]; pre-inoculation treatment,560 µM
same,% control,"[5]; pre-inoculation, 0.01 mM",8%
same,Uredia/plant,"[5]; pre-inoculation, 0.01 mM",194 Uredia/plant
same,% control,"[5]; pre-inoculation, 0.025 mM",17%
same,Uredia/plant,"[5]; pre-inoculation, 0.025 mM",175 Uredia/plant
same,% control,"[5]; pre-inoculation, 0.065 mM",13%
same,Uredia/plant,"[5]; pre-inoculation, 0.065 mM",182 Uredia/plant
same,% control,"[5]; pre-inoculation, 0.10 mM",13%
same,Uredia/plant,"[5]; pre-inoculation, 0.10 mM",183 Uredia/plant
same,% control,"[5]; pre-inoculation, 0.13 mM",19%
same,Uredia/plant,"[5]; pre-inoculation, 0.13 mM",170 Uredia/plant
same,% control,"[5]; pre-inoculation, 0.16 mM",32%
same,Uredia/plant,"[5]; pre-inoculation, 0.16 mM",143 Uredia/plant
same,% control,"[5]; pre-inoculation, 0.20 mM",32%
same,Uredia/plant,"[5]; pre-inoculation, 0.20 mM",143 Uredia/plant
same,% control,"[5]; pre-inoculation, 1.00 mM",57%
same,Uredia/plant,"[5]; pre-inoculation, 1.00 mM",91 Uredia/plant
same,% control,[6]; 0.01 mM,45% and 60%
same,Uredia/plant,[6]; 0.01 mM,44 Uredia/plant and 32 Uredia/plant
same,% control,[6]; 0.025 mM,51% and 66%
same,Uredia/plant,[6]; 0.025 mM,39 Uredia/plant and 27 Uredia/plant
same,% control,[6]; 0.13 mM,55% and 90%
same,% control,[6]; 0.16 mM,52% and 92%
same,% control,[6]; 0.20 mM,65% and 95%
same,% control,[6]; 1.00 mM,72% and 100%
same,% control,[6]; in vivo,52% and 82%
same,Put and Spd titers,[7]; highest concentration of DFMO,increased
same,PA levels in treated leaves,"[7]; sprays 0.01, 0.1 and 1.0 mM, 1, 3 and 8 days later",no significant reductions
same,Percent control,[8]; 0.01 mM,50.7% and 50%
same,Percent control,[8]; 0.025 mM,63.2%
same,Percent control,[8]; 0.065 mM,65.5%
same,Percent control,[8]; 0.10 mM,71.0%
same,Percent control,[8]; 0.13 mM,67.9%
same,Percent control,[8]; 0.16 mM,77.3%
same,Differentiation %,[9]; 0.1 mM,46%
same,Germination %,[9]; 0.1 mM,32%
same,Differentiation %,[9]; 0.5 mM,35%
same,Germination %,[9]; 0.5 mM,32%
same,Differentiation %,[9]; 1.0 mM,30%
same,Germination %,[9]; 1.0 mM,32%
same,Differentiation %,[9]; 5.0 mM,19%
same,Germination %,[9]; 5.0 mM,22%
same,inhibition at 100 µM,"[9]; 0.1 mM, read-out: Differentiation % Inhibiton",22%
same,inhibition at 100 µM,"[9]; 0.1 mM, read-out: Germination % Inhibition",24%
same,inhibition at 500 µM,"[9]; 0.5 mM, read-out: Differentiation % Inhibiton",41%
same,inhibition at 500 µM,"[9]; 0.5 mM, read-out: Germination % Inhibition",24%
same,inhibition at 1000 µM,"[9]; 1.0 mM, read-out: Differentiation % Inhibiton",49%
same,inhibition at 1000 µM,"[9]; 1.0 mM, read-out: Germination % Inhibition",24%
same,inhibition at 5000 µM,"[9]; 5.0 mM, read-out: Differentiation % Inhibiton",68%
same,inhibition at 5000 µM,"[9]; 5.0 mM, read-out: Germination % Inhibition",48%
same,Percent control,[10]; 5 mM,45%
same,Percent control,[10]; 10 mM,52% and ~50%
same,mycelial growth in vitro,[11],inhibited mycelial growth
same,% control,"[12]; post-inoculation, 0.01 mM",19%
same,Colonies/plant,"[12]; post-inoculation, 0.01 mM",30 Colonies/plant
same,% control,"[12]; post-inoculation, 0.025 mM",30%
same,Colonies/plant,"[12]; post-inoculation, 0.025 mM",26 Colonies/plant
same,% control,"[12]; post-inoculation, 0.065 mM",46%
same,Colonies/plant,"[12]; post-inoculation, 0.065 mM",20 Colonies/plant
same,% control,"[12]; post-inoculation, 0.10 mM",68%
same,Colonies/plant,"[12]; post-inoculation, 0.10 mM",12 Colonies/plant
same,% control,"[12]; post-inoculation, 0.20 mM",68%
same,Colonies/plant,"[12]; post-inoculation, 0.20 mM",12 Colonies/plant
same,% control,"[12]; post-inoculation, 1.00 mM",76%
same,Colonies/plant,"[12]; post-inoculation, 1.00 mM",9 Colonies/plant
same,% control,"[12]; post-inoculation, 5.00 mM",89%
same,Colonies/plant,"[12]; post-inoculation, 5.00 mM",4 Colonies/plant
same,% control,"[12]; pre-inoculation, 0.01 mM",41%
same,Colonies/plant,"[12]; pre-inoculation, 0.01 mM",22 Colonies/plant
same,% control,"[12]; pre-inoculation, 0.025 mM",35%
same,Colonies/plant,"[12]; pre-inoculation, 0.025 mM",24 Colonies/plant
same,% control,"[12]; pre-inoculation, 0.065 mM",46%
same,Colonies/plant,"[12]; pre-inoculation, 0.065 mM",20 Colonies/plant
same,% control,"[12]; pre-inoculation, 0.10 mM",51%
same,Colonies/plant,"[12]; pre-inoculation, 0.10 mM",18 Colonies/plant
same,% control,"[12]; pre-inoculation, 0.20 mM",46%
same,Colonies/plant,"[12]; pre-inoculation, 0.20 mM",20 Colonies/plant
same,% control,"[12]; pre-inoculation, 1.00 mM",66%
same,Colonies/plant,"[12]; pre-inoculation, 1.00 mM",13 Colonies/plant
same,% control,"[12]; pre-inoculation, 5.00 mM",95%
same,Colonies/plant,"[12]; pre-inoculation, 5.00 mM",2 Colonies/plant

# — patent US4818770A, “Prevention of a plant disease by specific inhibition of fungal polyamine biosynthesis” (priority 1986, dated 1989)
